Experimental data reported in patent publication US8741897B2, “Glucocorticoid mimetics, methods of making them, pharmaceutical compositions and uses thereof” (Boehringer Ingelheim Pharmaceuticals Inc., priority 2003, dated 2014).

Test system: glucocorticoid receptor function
Test: one or more of the above assays (GR binding and glucocorticoid receptor cell assays: aromatase, IL-6, TAT, MMTV-Luc, IL-8, ICAM-Luc)
Type: cell-based
Settings: assay not specified per compound
Procedure: B. Glucocorticoid Receptor Cell Assays
1. Induction of Aromatase in Fibroblasts (Cell Assay for Transactivation)
Dexamethasone, a synthetic ligand to the glucocorticoid receptor (GR), induces expression of aromatase in human foreskin fibroblast cells. The activity of aromatase is measured by the conversion of testosterone to estradiol in culture media.
On the day of the experiment, the media in the wells is replaced with fresh media. Cells are treated with test compounds to final concentrations of 10^−5 M to 10^−8 M, and testosterone to a final concentration of 300 ng/mL. Each well has a total volume of 100 μL. Samples are made in duplicates. Control wells include: (a) wells that receive testosterone only, and (b) wells that receive testosterone plus 2 μM of dexamethasone to provide maximum induction of aromatase. Plates are incubated at 37° C. overnight (15 to 18 hours), and supernatants are harvested at the end of incubation. […] The amount of estradiol is inversely proportional to the ELISA signals in each well. The extent of aromatase induction by test compounds is expressed as a relative percentage to dexamethasone. EC50 values of test compounds are derived by non-linear curve fitting.
2. Inhibition of IL-6 Production in Fibroblasts (Cell Assay for Transrepression)
Human foreskin fibroblast cells produce IL-6 in response to stimulation by proinflammatory cytokine IL-1.
On the next day, media in the wells is replaced with fresh media. Cells are treated with IL-1 (rhIL-1α, R&D Systems Cat. No. 200-LA) to a final concentration of 1 ng/mL, and with test compounds to final concentrations of 10^−5 M to 10^−8 M, in a total volume of 200 μL per well. Samples are done in duplicates. […] Positive control wells receive IL-1 only and represent maximum (or 100%) amount of IL-6 production. Plates are incubated at 37° C. overnight (15 to 18 hours), and supernatants are harvested at the end of incubation. IL-6 levels in the supernatants are determined by the ELISA kits for IL-6 (MedSystems Diagnostics GmbH, Vienna, Austria, Cat. No. BMS213TEN) according to manufacture's instructions. The extent of inhibition of IL-6 by test compounds is expressed in percentage relative to positive controls. IC50 values of test compounds are derived by non-linear curve fitting.
Evaluation of agonist or antagonist activity of compounds binding to the glucocorticoid receptor may be determined by any of the assays.
3. Modulation of Tyrosine Aminotransferase (TAT) Induction in Rat Hepatoma Cells
Testing of compounds for agonist or antagonist activity in induction of tyrosine aminotransferase (TAT) in rat hepatoma cells.
H4-II-E-C3 cells were incubated overnight in 96 well plates (20,000 cells/100 μL/well) in MEM medium containing 10% heat inactivated FBS and 1% nonessential amino acids. On the next day, cells were stimulated with the indicated concentrations of dexamethasone or test compound (dissolved in DMSO, final DMSO concentration 0.2%) for 18 hours. Control cells were treated with 0.2% DMSO. After 18 hours, the cells were lysed in a buffer containing 0.1% Triton X-100 and the TAT activity was measured in a photometric assay using tyrosine and alpha-ketoglutarate as substrates.
For measuring antagonist activity, the hepatoma cells were pre-stimulated by addition of dexamethasone (concentration ranges from 3×10^−9 M to 3×10^−8 M) shortly before the test compound was applied to the cells.
4. Modulation of MMTV-Luc Induction in HeLa Cells
Testing of compounds for agonist or antagonist activity in stimulation of MMTV-(mouse mammary tumor virus) promoter in HeLa cells.
Cells were cultured overnight in DMEM medium without phenol red, supplemented with 3% CCS (charcoal treated calf serum) and then transferred to 96 well plates (15,000 cells/100 μL/well).

Compound	activity as agonists of the glucocorticoid receptor function in one or more of the above assays
COc1ccc(-c2ccccc2)cc1C(C)(C)CC(O)(Cc1cc2c(C)nccc2[nH]1)C(F)(F)F (centres unmarked) [1,1,1-Trifluoro-4-(4-methoxybiphenyl-3-yl)-4-methyl-2-(4-methyl-1H-pyrrolo[3,2-c]pyridin-2-ylmethyl)pentan-2-ol]	potent agonists
CC(C)(CC(O)(Cc1cc2cc(Br)ccc2[nH]1)C(F)(F)F)c1cc(Cl)cc2c1OCC2 (centres unmarked) [2-(5-Bromo-1H-indol-2-ylmethyl)-4-(5-chloro-2,3-dihydrobenzofuran-7-yl)-1,1,1-trifluoro-4-methylpentan-2-ol]	potent agonists
COc1ccc(-c2cncnc2)cc1C(C)(C)CC(O)(Cc1cc2cc(O)ncc2[nH]1)C(F)(F)F (centres unmarked) [2-[2-Hydroxy-4-(2-methoxy-5-pyrimidin-5-ylphenyl)-4-methyl-2-trifluoromethylpentyl]-1H-pyrrolo[2,3-c]pyridin-5-ol]	potent agonists
Cc1ccc(F)cc1C(C)(C)CC(O)(Cc1cc2cnccc2[nH]1)C1CC1 (centres unmarked) [2-Cyclopropyl-4-(5-fluoro-2-methylphenyl)-4-methyl-1-(1H-pyrrolo[3,2-c]pyridin-2-yl)pentan-2-ol]	agonists
COc1ccc(F)cc1C(C)(C)CC(O)(Cc1cc2cnccc2[nH]1)C(C)C (centres unmarked) [5-(5-Fluoro-2-methoxyphenyl)-2,5-dimethyl-3-(1H-pyrrolo[3,2-c]pyridin-2-ylmethyl)hexan-3-ol]	agonists
CC(C)(CC(O)(Cc1cc2c(C#N)cccc2[nH]1)C(F)(F)F)c1cc(F)ccc1O (centres unmarked) [2-[4-(5-Fluoro-2-hydroxyphenyl)-2-hydroxy-4-methyl-2-trifluoromethylpentyl]-1H-indole-4-carbonitrile]	potent agonists
COc1ccc(-c2ccsc2)cc1C(C)(C)CC(O)(Cc1cc2ccncc2[nH]1)C(F)(F)F (centres unmarked) [1,1,1-Trifluoro-4-(2-methoxy-5-thiophen-3-ylphenyl)-4-methyl-2-(1H-pyrrolo[2,3-c]pyridin-2-ylmethyl)pentan-2-ol]	potent agonists
CC(C)(CC(O)(Cc1cc2ncncc2[nH]1)C(F)(F)F)c1cc(F)ccc1O (centres unmarked) [4-Fluoro-2-[4,4,4-trifluoro-3-hydroxy-1,1-dimethyl-3-(5H-pyrrolo[3,2-d]pyrimidin-6-ylmethyl)butyl]phenol]	potent agonists
COc1ccc(-c2cccc3ccccc23)cc1C(C)(C)CC(O)(Cc1cc2cc(N3CCOCC3)ncc2[nH]1)C(F)(F)F (centres unmarked) [1,1,1-Trifluoro-4-(2-methoxy-5-naphthalen-1-ylphenyl)-4-methyl-2-(5-morpholin-4-yl-1H-pyrrolo[2,3-c]pyridin-2-ylmethyl)pentan-2-ol]	potent agonists
CC(C)(CC(O)(Cc1cc2cc(N3CCOCC3)ncc2[nH]1)C(F)(F)F)c1cc(-c2ccccc2C#N)ccc1O (centres unmarked) [4′-Hydroxy-3′-[4,4,4-trifluoro-3-hydroxy-1,1-dimethyl-3-(5-morpholin-4-yl-1H-pyrrolo[2,3-c]pyridin-2-ylmethyl)butyl]biphenyl-2-carbonitrile]	potent agonists
Cc1cncc2[nH]c(CC(O)(CC(C)(C)c3ccc(F)cc3O)C(F)(F)F)cc12 (centres unmarked) [5-Fluoro-2-[4,4,4-trifluoro-3-hydroxy-1,1-dimethyl-3-(4-methyl-1H-pyrrolo[2,3-c]pyridin-2-ylmethyl)butyl]phenol]	potent agonists
Cc1ccc(F)cc1C(C)(C)CC(O)(Cc1cc2c(C)nccc2[nH]1)C(F)(F)F (centres unmarked) [1,1,1-Trifluoro-4-(5-fluoro-2-methylphenyl)-4-methyl-2-(4-methyl-1H-pyrrolo[3,2-c]pyridin-2-ylmethyl)pentan-2-ol]	potent agonists
COc1ccc(-c2cncnc2)cc1C(C)(C)CC(O)(Cc1cc2cc(Cl)ncc2[nH]1)C(F)(F)F (centres unmarked) [2-(5-Chloro-1H-pyrrolo[2,3-c]pyridin-2-ylmethyl)-1,1,1-trifluoro-4-(2-methoxy-5-pyrimidin-5-ylphenyl)-4-methylpentan-2-ol]	potent agonists
CC(C)(CC(O)(Cc1cc2cnccc2[nH]1)C(F)(F)F)c1cc(S(C)(=O)=O)cc2c1OCC2 (centres unmarked) [1,1,1-Trifluoro4-(5-methanesulfonyl-2,3-dihydrobenzofuran-7-yl)-4-methyl-2-(1H-pyrrolo[3,2-c]pyridin-2-ylmethyl)pentan-2-ol]	potent agonists
CC(C)(CC(O)(Cc1cc2nc(CN3CCOCC3)ccc2[nH]1)C(F)(F)F)c1cc(Cl)cc2c1OCC2 (centres unmarked) [4-(5-Chloro-2,3-dihydrobenzofuran-7-yl)-1,1,1-trifluoro-4-methyl-2-(5-morpholin-4-ylmethyl-1H-pyrrolo[3,2-b]pyridin-2-ylmethyl)pentan-2-ol]	potent agonists
CC(C)Oc1cc2cc(CC(O)(CC(C)(C)c3ccccc3)C(F)(F)F)[nH]c2cn1 (centres unmarked) [1,1,1-Trifluoro-2-(5-isopropoxy-1H-pyrrolo[2,3-c]pyridin-2-ylmethyl)-4-methyl-4-phenylpentan-2-ol]	potent agonists
COc1ccc(-c2cccnc2)cc1C(C)(C)CC(O)(Cc1cc2cc(Oc3ccccc3)ncc2[nH]1)C(F)(F)F (centres unmarked) [1,1,1-Trifluoro-4-(2-methoxy-5-pyridin-3-ylphenyl)-4-methyl-2-(5-phenoxy-1H-pyrrolo[2,3-c]pyridin-2-ylmethyl)pentan-2-ol]	potent agonists
CC(C)(CC(O)(Cc1cc2cc(-c3ccc(F)cc3)ncc2[nH]1)C(F)(F)F)c1cccc(F)c1 (centres unmarked) [1,1,1-Trifluoro-4-(3-fluorophenyl)-2-[5-(4-fluorophenyl)-1H-pyrrolo[2,3-c]pyridin-2-ylmethyl]-4-methylpentan-2-ol]	potent agonists
Cc1ccc(F)cc1C(C)(C)CC(O)(Cc1cc2cc(OS(=O)(=O)C(F)(F)F)ncc2[nH]1)C(F)(F)F (centres unmarked) [Trifluoromethanesulfonic acid 2-[4-(5-fluoro-2-methylphenyl)-2-hydroxy-4-methyl-2-trifluoromethylpentyl]-1H-pyrrolo[2,3-c]pyridin-5-yl ester]	potent agonists
COc1ccc(F)cc1C(C)(C)CC(O)(Cc1cc2ccncc2[nH]1)C(C)(C)C (centres unmarked) [5-(5-Fluoro-2-methoxyphenyl)-2,2,5-trimethyl-3-(1H-pyrrolo[2,3-c]pyridin-2-ylmethyl)hexan-3-ol]	agonists
CC(C)(CC(O)(Cc1cc2cnccc2[nH]1)C(F)(F)F)c1cccc(-c2cncnc2)c1 (centres unmarked) [1,1,1-Trifluoro-4-methyl-4-(3-pyrimidin-5-ylphenyl)-2-(1H-pyrrolo[3,2-c]pyridin-2-ylmethyl)pentan-2-ol]	potent agonists
COc1ccc(-c2ccccc2C#N)cc1C(C)(C)CC(O)(Cc1cc2cc(N3CCOCC3)ncc2[nH]1)C(F)(F)F (centres unmarked) [4′-Methoxy-3′-[4,4,4-trifluoro-3-hydroxy-1,1-dimethyl-3-(5-morpholin-4-yl-1 H-pyrrolo[2,3-c]pyridin-2-ylmethyl)butyl]biphenyl-2-carbonitrile]	potent agonists
COc1ccc(Br)cc1C(C)(C)CC(O)(Cc1cc2cc(N3CCCCC3)ncc2[nH]1)C(F)(F)F (centres unmarked) [4-(5-Bromo-2-methoxyphenyl)-1,1,1-trifluoro-4-methyl-2-(5-piperidin-1-yl-1H-pyrrolo[2,3-c]pyridin-2-ylmethyl)pentan-2-ol]	potent agonists
